Columns and labels:
T47D = experiment: Growth inhibition of human T47D cells assessed as cell growth at 10 uM incubated for 48 hrs by sulforhodamine B assay relative to control; type: functional; settings: read-out: Activity
SF-295 = experiment: Growth inhibition of human SF-295 cells assessed as cell growth at 10 uM incubated for 48 hrs by sulforhodamine B assay relative to control; type: functional; settings: read-out: Activity
SNB-75 [1] = experiment: Growth inhibition of human SNB-75 cells incubated for 48 hrs by sulforhodamine B assay; type: functional
A549 [2] = experiment: Growth inhibition of human A549/ATCC cells assessed as cell growth at 0.01 uM incubated for 48 hrs by sulforhodamine B assay relative to control; type: functional; settings: read-out: Activity
NCI-H226 = experiment: Growth inhibition of human NCI-H226 cells incubated for 48 hrs by sulforhodamine B assay; type: functional
[3] = tested on: Poly(dA-dT)oligonucleotide; experiment: Displacement of ethidium bromide from minor groove of poly(dA:dT) dsDNA (unknown origin) by fluorescence spectrophotometry; type: nucleic-acid assay
A549 [4] = experiment: Growth inhibition of human A549/ATCC cells assessed as cell growth at 10 uM incubated for 48 hrs by sulforhodamine B assay relative to control; type: functional; settings: read-out: Activity
PC-3 = experiment: Growth inhibition of human PC-3 cells incubated for 48 hrs by sulforhodamine B assay; type: functional
HCT-116 [5] = experiment: Growth inhibition of human HCT-116 cells assessed as cell growth at 1 uM incubated for 48 hrs by sulforhodamine B assay relative to control; type: functional; settings: read-out: Activity
[6] = tested on: Poly(dA-dT)oligonucleotide; experiment: Binding affinity to minor groove of poly(dA:dT) dsDNA (unknown origin) assessed as change in melting temperature by UV-vis spectrophotometry based DNA melting assay; type: nucleic-acid assay
NCI-H460 = experiment: Growth inhibition of human NCI-H460 cells assessed as cell growth at 10 uM incubated for 48 hrs by sulforhodamine B assay relative to control; type: functional; settings: read-out: Activity
SN12C [7] = experiment: Growth inhibition of human SN12C cells assessed as cell growth at 10 uM incubated for 48 hrs by sulforhodamine B assay relative to control; type: functional; settings: read-out: Activity
SF-539 [8] = experiment: Growth inhibition of human SF-539 cells assessed as cell growth at 100 uM incubated for 48 hrs by sulforhodamine B assay relative to control; type: functional; settings: read-out: Activity
OVCAR-4 [9] = experiment: Growth inhibition of human OVCAR-4 cells assessed as cell growth at 1 uM incubated for 48 hrs by sulforhodamine B assay relative to control; type: functional; settings: read-out: Activity
HCC 2998 = experiment: Growth inhibition of human HCC 2998 cells assessed as cell growth at 10 uM incubated for 48 hrs by sulforhodamine B assay relative to control; type: functional; settings: read-out: Activity
LOX IMVI [10] = experiment: Growth inhibition of human LOX IMVI cells assessed as cell growth at 100 uM incubated for 48 hrs by sulforhodamine B assay relative to control; type: functional; settings: read-out: Activity
NCI-H522 = experiment: Growth inhibition of human NCI-H522 cells assessed as cell growth at 10 uM incubated for 48 hrs by sulforhodamine B assay relative to control; type: functional; settings: read-out: Activity
OVCAR-4 [11] = experiment: Growth inhibition of human OVCAR-4 cells assessed as cell growth at 10 uM incubated for 48 hrs by sulforhodamine B assay relative to control; type: functional; settings: read-out: Activity
COLO 205 = experiment: Growth inhibition of human COLO 205 cells assessed as cell growth at 0.01 uM incubated for 48 hrs by sulforhodamine B assay relative to control; type: functional; settings: read-out: Activity
NCI-H322M [12] = experiment: Growth inhibition of human NCI-H322M cells assessed as cell growth at 100 uM incubated for 48 hrs by sulforhodamine B assay relative to control; type: functional; settings: read-out: Activity
Hs-578T [13] = experiment: Growth inhibition of human Hs-578T cells incubated for 48 hrs by sulforhodamine B assay; type: functional
HCT-116 [14] = experiment: Growth inhibition of human HCT-116 cells assessed as cell growth at 0.1 uM incubated for 48 hrs by sulforhodamine B assay relative to control; type: functional; settings: read-out: Activity
HL-60(TB) = experiment: Growth inhibition of human HL-60(TB) cells assessed as cell growth at 10 uM incubated for 48 hrs by sulforhodamine B assay relative to control; type: functional; settings: read-out: Activity
SNB-75 [15] = experiment: Growth inhibition of human SNB-75 cells assessed as cell growth at 10 uM incubated for 48 hrs by sulforhodamine B assay relative to control; type: functional; settings: read-out: Activity
SN12C [16] = experiment: Growth inhibition of human SN12C cells assessed as cell growth at 100 uM incubated for 48 hrs by sulforhodamine B assay relative to control; type: functional; settings: read-out: Activity
CAKI-1 = experiment: Growth inhibition of human CAKI-1 cells assessed as cell growth at 10 uM incubated for 48 hrs by sulforhodamine B assay relative to control; type: functional; settings: read-out: Activity
A498 = experiment: Growth inhibition of human A498 cells assessed as cell growth at 10 uM incubated for 48 hrs by sulforhodamine B assay relative to control; type: functional; settings: read-out: Activity
NCI-H322M [17] = experiment: Growth inhibition of human NCI-H322M cells assessed as cell growth at 10 uM incubated for 48 hrs by sulforhodamine B assay relative to control; type: functional; settings: read-out: Activity
SF-539 [18] = experiment: Growth inhibition of human SF-539 cells assessed as cell growth at 10 uM incubated for 48 hrs by sulforhodamine B assay relative to control; type: functional; settings: read-out: Activity
MCF7 = experiment: Growth inhibition of human MCF7 cells assessed as cell growth at 10 uM incubated for 48 hrs by sulforhodamine B assay relative to control; type: functional; settings: read-out: Activity
RPMI-8226 = experiment: Growth inhibition of human RPMI-8226 cells incubated for 48 hrs by sulforhodamine B assay; type: functional
TK-10 = experiment: Growth inhibition of human TK-10 cells assessed as cell growth at 10 uM incubated for 48 hrs by sulforhodamine B assay relative to control; type: functional; settings: read-out: Activity
LOX IMVI [19] = experiment: Growth inhibition of human LOX IMVI cells incubated for 48 hrs by sulforhodamine B assay; type: functional
Hs-578T [20] = experiment: Growth inhibition of human Hs-578T cells assessed as cell growth at 10 uM incubated for 48 hrs by sulforhodamine B assay relative to control; type: functional; settings: read-out: Activity
BT-549 = experiment: Growth inhibition of human BT-549 cells assessed as cell growth at 10 uM incubated for 48 hrs by sulforhodamine B assay relative to control; type: functional; settings: read-out: Activity
NCI/ADR-RES = experiment: Growth inhibition of human NCI/ADR-RES cells assessed as cell growth at 10 uM incubated for 48 hrs by sulforhodamine B assay relative to control; type: functional; settings: read-out: Activity
[21] = read-out: LC50 (the source's name)
[22] = read-out: pLC50 (the source's name) (converted)

Compound: CC(=O)Nc1cc(CO[Si](C)(C)C(C)(C)C)cc(NC(=O)c2ccc(C(=O)Nc3cccc(NC(=O)CCCN(C)C)c3)cc2)c1
- growth at 10 µM (T47D): 73%
- growth at 10 µM (SF-295): 95%
- GI50 (SNB-75 [1]; read-out: GI50): > 75 µM
- LC50 (SNB-75 [1]; read-out: LC50): > 75 µM
- TGI (SNB-75 [1]; read-out: TGI): > 75 µM
- GI50 (SNB-75 [1]; read-out: pGI50 (converted)): > 75.9 µM
- LC50 (SNB-75 [1]; read-out: pLC50 (converted)): > 75.9 µM
- TGI (SNB-75 [1]; read-out: pTGI): > 75.9 µM
- growth at 0.01 µM (A549 [2]): 99%
- GI50 (NCI-H226; read-out: GI50): > 75 µM
- CC50 (NCI-H226; [21]): > 75 µM
- TGI (NCI-H226; read-out: TGI): > 75 µM
- GI50 (NCI-H226; read-out: pGI50 (converted)): > 75.9 µM
- CC50 (NCI-H226; [22]): > 75.9 µM
- TGI (NCI-H226; read-out: pTGI): > 75.9 µM
- C50 [3]: 5 µM
- growth at 10 µM (A549 [4]): 86%
- GI50 (PC-3; read-out: GI50): > 75 µM
- CC50 (PC-3; [21]): > 75 µM
- TGI (PC-3; read-out: TGI): > 75 µM
- GI50 (PC-3; read-out: pGI50 (converted)): > 75.9 µM
- CC50 (PC-3; [22]): > 75.9 µM
- TGI (PC-3; read-out: pTGI): > 75.9 µM
- growth at 1 µM (HCT-116 [5]): 101%
- ΔTm [6]: 47.2 °C
- growth at 10 µM (NCI-H460): 95%
- growth at 10 µM (SN12C [7]): 99%
- growth at 100 µM (SF-539 [8]): 88%
- growth at 1 µM (OVCAR-4 [9]): 100%
- growth at 10 µM (HCC 2998): 93%
- growth at 100 µM (LOX IMVI [10]): 84%
- growth at 10 µM (NCI-H522): 82%
- growth at 10 µM (OVCAR-4 [11]): 85%
- growth at 0.01 µM (COLO 205): 101%
- growth at 100 µM (NCI-H322M [12]): 74%
- GI50 (Hs-578T [13]; read-out: GI50): > 75 µM
- CC50 (Hs-578T [13]; [21]): > 75 µM
- TGI (Hs-578T [13]; read-out: TGI): > 75 µM
- GI50 (Hs-578T [13]; read-out: pGI50 (converted)): > 75.9 µM
- CC50 (Hs-578T [13]; [22]): > 75.9 µM
- TGI (Hs-578T [13]; read-out: pTGI): > 75.9 µM
- growth at 0.1 µM (HCT-116 [14]): 99%
- growth at 10 µM (HL-60(TB)): 81%
- growth at 10 µM (SNB-75 [15]): 73%
- growth at 100 µM (SN12C [16]): 91%
- growth at 10 µM (CAKI-1): 86%
- growth at 10 µM (A498): 77%
- growth at 10 µM (NCI-H322M [17]): 102%
- growth at 10 µM (SF-539 [18]): 89%
- growth at 10 µM (MCF7): 77%
- GI50 (RPMI-8226; read-out: GI50): > 75 µM
- CC50 (RPMI-8226; [21]): > 75 µM
- TGI (RPMI-8226; read-out: TGI): > 75 µM
- GI50 (RPMI-8226; read-out: pGI50 (converted)): > 75.9 µM
- CC50 (RPMI-8226; [22]): > 75.9 µM
- TGI (RPMI-8226; read-out: pTGI): > 75.9 µM
- growth at 10 µM (TK-10): 104%
- GI50 (LOX IMVI [19]; read-out: GI50): > 75 µM
- LC50 (concentration giving 50% cell kill) (LOX IMVI [19]; read-out: LC50): > 75 µM
- TGI (LOX IMVI [19]; read-out: TGI): > 75 µM
- GI50 (LOX IMVI [19]; read-out: pGI50 (converted)): > 75.9 µM
- LC50 (concentration giving 50% cell kill) (LOX IMVI [19]; read-out: pLC50 (converted)): > 75.9 µM
- TGI (LOX IMVI [19]; read-out: pTGI): > 75.9 µM
- growth at 10 µM (Hs-578T [20]): 111%
- growth at 10 µM (BT-549): 84%
- growth at 10 µM (NCI/ADR-RES): 88%

— ChEMBL document CHEMBL4715697, “Synthesis and biological activity of benzamide DNA minor groove binders” (2016)
